Columns and labels:
[1] = cited from earlier work
plasma glucose [2] = assay: Mouse study 2: plasma glucose in a model of muscle atrophy (hindlimb unloading); assay type: in vivo, mice; conditions: for change in blood glucose levels versus control with unloading (in words): study 2, Table 2; for Plasma glucose: study 2, hindlimb unloading, 50 μg/kg/bw (combination 50+50) daily by gavage for 3 weeks, control with unloading 12.89, without unloading 12.02
Source text: Briefly, nine month old animals were randomized at the beginning of the study into five groups with 10 animals per group. The animals were placed in special cages for duration of three weeks and their tails were suspended, which leads to skeletal muscle atrophy of the unloaded hindlimbs. An additional group without hindlimb unloading was placed in identical cages in order to detect the effects of unloading. All mice were housed separately and had free access to feed and water ad libidum. All animals were treated daily by gavage throughout the 3 weeks of the experiment: • 1. Control group without unloading received vehicle (gelatine) • 2. Control group with unloading received vehicle (gelatine) • 3. […] The 25-OH D3 group with unloading received 25-OH D3 (50 μg/kg/bw) • 5.

blood glucose = assay: Clinical trial: fasting glucose levels, week 15 versus week 2; assay type: in vivo, human; conditions: for effect on glucose levels (conclusion in words): daily or weekly oral dosing, week 15 vs week 2; for number of individuals with lower glucose levels at week 15 as compared to week 2: of ten individuals receiving daily (20 μg) or weekly (140 μg) oral dosing, postmenopausal women, no rigorous statistics
Source text: (§1) Each group included five subjects.
(§2) Equimolar quantities of both substances were investigated.
(§3) Each dosage was consumed orally at breakfast.
(§4) Rigorous statistical analysis of the results obtained could not be performed for two reasons. First, upon unblinding the data, it was discovered that there was a difference between the groups' baseline glucose levels, and that this difference continued throughout the study. Secondly, upon examining individual's insulin levels, it was noted that a number of them were recorded as “0.0” in at least one visit.

plasma glucose [3] = assay: Mouse study 1: plasma glucose in a model of muscle hypertrophy; assay type: in vivo, mice
Method: In the first study, the effects of 25-OH D3 on blood glucose were determined in a model of muscle hypertrophy. Briefly, two groups of 10 animals were anesthetized and the left hindlimb of the animals was fixed. All animals received an analgesic. A small incision was made through the skin over the gastrocnemius muscle. The complete gastrocnemius muscle and his tendons were exposed. Both heads of the gastrocnemius muscle were carefully dissected from the underlying intact muscles and care was taken not to rupture nerves and vessels. The skin was closed with a silk suture and the animals were returned into the cages. After recovering from anesthesia the animals could move directly without problems in their cages. Animals were treated for three weeks by gavage with 25-OH D3 at a daily dosage of 50 μg/kg and the control group received vehicle. At the end of the study, blood was taken and plasma glucose concentration was analyzed by a Hitachi 912 Automatic Analyser.

insulin levels = assay: Clinical trial: insulin levels, week 15 versus week 2; assay type: in vivo, human; conditions: for number of individuals with higher insulin levels at week 15 than at week 2 / number of individuals with lower insulin level at week 15 than at week 2: only individuals without a "0.0" insulin result: four for Vitamin D3, five for 25-OH D3, daily or weekly dosing
Source text: as §1, §2, §3, §4

| Compound | blood concentration at which hypercalcemia may occur ([1]; in vivo) | change in blood glucose levels versus control with unloading (in words) (plasma glucose [2]) | Plasma glucose (plasma glucose [2]) [mmol/L] | effect on glucose levels (conclusion in words) (blood glucose) | number of individuals with lower glucose levels at week 15 as compared to week 2 (blood glucose) | change in plasma glucose compared to control group (in words) (plasma glucose [3]; study 1, Table 1) | Plasma glucose (plasma glucose [3]; study 1, muscle hypertrophy model, 50 μg/kg daily by gavage for three weeks, vehicle control 15.53) [mmol/L] | ability to improve insulin sensitivity (conclusion in words) (insulin levels; compared with Vitamin D3) | number of individuals with higher insulin levels at week 15 than at week 2 (insulin levels) | number of individuals with lower insulin level at week 15 than at week 2 (insulin levels) | blood concentration of 25-hydroxyvitamin D after ingestion as a dietary supplement ([1]; ingestion of 250 μg/day Vitamin D) |
| --- | --- | --- | --- | --- | --- | --- | --- | --- | --- | --- | --- |
| 25-hydroxyvitamin D | greater than 375 nmol/L |  |  |  |  |  |  |  |  |  |  |
| C=C1CC[C@H](O)C/C1=C/C=C1\CCC[C@]2(C)[C@@H]([C@H](C)CCCC(C)(C)O)CC[C@@H]12 [25-OH D3, 25-hydroxyvitamin D3] |  | moderate decrease in blood glucose levels | 12.75 | can lower glucose levels | 6 of 10 | decrease in plasma glucose | 14.65 | better ability to improve insulin sensitivy than does Vitamin D3 | one | four |  |
| C=C1CC[C@H](O)C/C1=C/C=C1\CCC[C@]2(C)[C@@H]([C@H](C)CCCC(C)C)CC[C@@H]12 [Vitamin D3, cholecalciferol] |  | moderate decrease in blood glucose levels | 12.69 | can lower glucose levels | 7 |  |  |  | three | one |  |
| Vitamin D |  |  |  |  |  |  |  |  |  |  | about 200 nmol/L |

Reference: patent publication US20110039811A1, “TREATING HYPERGLYCEMIA WITH 25-HYDROXYVITAMIN D3” (priority 2008, published 2011)
